Results published in a compilation of properties of binary mixtures (doi:10.1021/acs.jced.3c00239).

Assay: xn = mol fraction of the nth substance listed
Conditions: 100 kPa

CCCCO + CC[n+]1ccn(C)c1.N#C[N-]C#N
x2 = 0
Conditions	speed of sound [m/s]	viscosity [mPa·s]
298.15 K	1241	2.69
303.15 K	1224	2.41
308.15 K	1207	2.17
313.15 K	1191	1.91
318.15 K	1174	1.71
323.15 K	1158	1.57

CC[n+]1ccn(C)c1.N#C[N-]C#N + CCCCO
Conditions	speed of sound [m/s]	viscosity [mPa·s]
298.15 K, x1 = 0.1015	1316	2.73
298.15 K, x1 = 0.2007	1385	2.85
298.15 K, x1 = 0.4008	1515	3.54
298.15 K, x1 = 0.5021	1575	4.21
298.15 K, x1 = 0.6014	1629	5.1
298.15 K, x1 = 0.7012	1685	6.4
298.15 K, x1 = 0.8016	1725	7.9
298.15 K, x1 = 0.9012	1763	10
298.15 K, x1 = 1	1787	13.1
303.15 K, x1 = 0.1015	1300	2.36
303.15 K, x1 = 0.2007	1369	2.41
303.15 K, x1 = 0.3006	1435	2.63
303.15 K, x1 = 0.4008	1499	2.99
303.15 K, x1 = 0.5021	1559	3.55
303.15 K, x1 = 0.6014	1613	4.26
303.15 K, x1 = 0.7012	1669	5.2
303.15 K, x1 = 0.8016	1709	6.6
303.15 K, x1 = 1	1775	11.8
308.15 K, x1 = 0.1015	1283	2.11
308.15 K, x1 = 0.2007	1352	2.17
308.15 K, x1 = 0.5021	1542	2.86
308.15 K, x1 = 0.6014	1596	3.47
308.15 K, x1 = 0.9012	1730	7.3
308.15 K, x1 = 1	1763	10.9
313.15 K, x1 = 0.1015	1266	1.91
313.15 K, x1 = 0.4008	1466	2.16
313.15 K, x1 = 0.5021	1525	2.38
313.15 K, x1 = 0.6014	1580	2.89
313.15 K, x1 = 0.7012	1636	3.58
313.15 K, x1 = 0.8016	1676	4.42
313.15 K, x1 = 0.9012	1713	6
313.15 K, x1 = 1	1751	9
318.15 K, x1 = 0.1015	1250	1.71
318.15 K, x1 = 0.2007	1319	1.79
318.15 K, x1 = 0.3006	1385	1.86
318.15 K, x1 = 0.4008	1449	1.93
318.15 K, x1 = 0.5021	1509	2.07
318.15 K, x1 = 0.7012	1619	2.91
318.15 K, x1 = 0.8016	1659	3.61
318.15 K, x1 = 0.9012	1697	5
318.15 K, x1 = 1	1739	8.1
323.15 K, x1 = 0.1015	1233	1.52
323.15 K, x1 = 0.3006	1369	1.63
323.15 K, x1 = 0.5021	1492	1.84
323.15 K, x1 = 0.6014	1547	1.99
323.15 K, x1 = 0.7012	1603	2.43
323.15 K, x1 = 0.8016	1643	3.03
323.15 K, x1 = 0.9012	1680	4.01
323.15 K, x1 = 1	1727	7.3
